According to PubChem BioAssay AID651703 (Broad Institute, 2012):

molecular target: Transforming acidic coiled-coil-containing protein 3 (Homo sapiens) (UniProt Q9Y6A5); assay: ARNT/TACC3 interaction disruptors, potency, confirmation, biochemical, AlphaScreen, cherry-picked samples (AID 651703); conditions: AlphaScreen His-ARNT PAS-B / GST-TACC3 binding, luminescence;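 also: TACC3 partner is the GST-tagged E629A mutant dimer; hits lower the signal meaning they disrupt ARNT binding to TACC3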

Row | Structure (SMILES) | AC50 [µM]
1 | O=C(Nc1nc(-c2ccccn2)cs1)c1ccc(Cl)s1 | 3.61
2 | CCCCC(=O)NC(c1cccc([N+](=O)[O-])c1)c1ccc2cccnc2c1O (stereo not given) | 4.22
3 | COc1ccc(-c2nc(C#N)c(N3CCCCC3)o2)cc1 | 32.2
4 | Cc1ccccc1-n1c(O)c(/C=N/NC(=O)c2ccncc2)c(=O)[nH]c1=O | 11.5
5 | Cc1cc(=O)[nH]c(-n2ncc(C#N)c2N)n1 | 59.7
6 | O=C(NNc1ccccn1)C(=O)NNS(=O)(=O)c1ccc(F)cc1 | 15.5
7 | O=C(N[C@@H]1CC[C@H](CCn2cc(-c3ccccn3)nn2)O[C@H]1CO)c1ccccc1 | 27.6
8 | Oc1c(CN2CCCCC2)cc(Br)c2cccnc12 | 0.995
9 | CCOc1ncccc1C(=O)OCC(=O)Nc1nnc(-c2ccccc2)o1 | 21.6
10 | O=C(CNCc1ccccn1)N1CCc2ccccc2C1 | 3.23
11 | COc1ccc(C2=Nn3c(nnc3-c3ccccn3)SC2)cc1 | 11.2
12 | Cn1c(CNc2ccccc2O)nc2ccccc21 | 21.8
13 | O=c1cc(N/N=C/c2ccccc2)[nH]c(=O)[nH]1 | 31.8
14 | COc1ccc(Br)cc1CNc1ccc(O)cc1 | 37.6
15 | O=S(=O)(N[C@H]1CC[C@@H](CCn2cc(-c3ccccn3)nn2)O[C@H]1CO)c1cccc(Cl)c1 | 23.4
16 | O=C(N/N=C/c1cc(Br)ccc1OC(=O)c1ccc(Br)cc1)c1ccncc1 | 4.24
17 | c1ccc(-c2cnnc(-c3ccccn3)n2)cc1 | 2.57
18 | c1ccc(-c2nc3cc4ccccc4cc3[nH]2)nc1 | 32.7
19 | N#Cc1ccsc1NC(=O)c1ccccn1 | 21.9
20 | Cc1[nH]n(-c2ccccc2)c(=O)c1/C=N/N(c1ccccc1)c1ccccc1 | 16.2
21 | Nn1c(SC/C=C/c2ccccc2)nnc1-c1ccccn1 | 5.62
22 | COc1ccc(CNc2nc(-c3ccccn3)nnc2-c2ccccc2)cc1 | 0.611
23 | CC1CN(Cc2ccc(O)c3ncccc23)CC(C)O1 (stereo not given) | 2.59

Row | Structure (SMILES) | AC50 [µM]
24 | Clc1cccc(-c2ccc(CNCc3ccccn3)o2)c1 | 21.2
25 | O=C(CN1C(=O)/C(=C\c2cccs2)SC1=S)Nc1cccc(C(=O)O)c1 | 26.3
26 | O=C(CSc1cccc2cccnc12)OCC(=O)c1ccccc1 | 37.3
27 | COc1ccc(NC(=O)N[C@@H]2CC[C@H](CCn3cc(-c4ccccn4)nn3)O[C@H]2CO)cc1 | 12.7
28 | COc1ccc(C(=O)Cc2nnc(C)s2)c(OC)c1 | 67.3
29 | Cc1[nH][nH]c(=O)c1C(c1ccc(-c2ccc(F)cc2)o1)c1c(C)[nH][nH]c1=O | 19.6
30 | O=C(CSc1ccc2nnc(-c3ccccn3)n2n1)Nc1nccs1 | 11.2
31 | CCCCCC/C=N/Nc1nnc(Cc2ccc(OC)c(OC)c2)c(=O)[nH]1 | 25.1
32 | COc1cccc(C(=O)Nc2nnc(-c3cccs3)o2)c1 | 21.4
33 | O=C(COC(=O)c1cccs1)Nc1nnc(-c2ccccc2)o1 | 14.1
34 | O=S(=O)(N[C@@H]1CC[C@@H](CCn2cc(-c3ccccn3)nn2)O[C@@H]1CO)c1cccc(Cl)c1 | 27.2
35 | O=C(O)CSc1cc(NS(=O)(=O)c2cccc([N+](=O)[O-])c2)c2ccccc2c1O | 48.1
36 | CCCCCc1cc(=O)oc2c(C(CCN3CCCC3)c3ccc(N(C)C)cc3)c(OC)cc(OC)c12 (stereo not given) | 6.86
37 | O=C(CSc1nnc(-c2ccccn2)o1)Nc1ccccc1F | 13
38 | Oc1cc(NCCN2CCOCC2)cc2cccnc12 | 1.46
39 | Cc1cc(NC(=O)CC(C)C)c(=O)n(Cc2ccccc2F)c1 | 9.6
40 | COc1cccc(C2c3[nH]c4ccccc4c3CCN2Cc2ncc[nH]2)c1 (stereo not given) | 38
41 | CCN(CC)S(=O)(=O)c1ccc(NN)nc1 | 8.98
42 | O=C(N[C@H]1CC[C@@H](CCn2cc(-c3ccccn3)nn2)O[C@H]1CO)c1cccnc1 | 8.65
43 | Cc1ccccc1C(=O)Nc1nnc(-c2ccco2)o1 | 43.1
44 | Oc1ccc(CNC2Cc3ccccc3C2)c2cccnc12 | 0.63
45 | C[C@@H](C(=O)Nc1nc(-c2ccccn2)cs1)N1C(=O)C2CCCCC2C1=O (stereo not given in full) | 4.28
46 | Cc1ccc(CNc2nc(-c3ccccn3)nnc2-c2ccccc2)cc1 | 0.736

Row | Structure (SMILES) | AC50 [µM]
47 | CCOc1ccc2c(c1)c(N=NC(=N)N)c(O)n2C | 53.9
48 | O=S(=O)(N[C@@H]1CC[C@H](CCn2cc(-c3ccccn3)nn2)O[C@H]1CO)c1cccc(F)c1 | 18.2
49 | c1ccc(-c2nnc(-c3ccccn3)nc2NCC2CCCCC2)cc1 | 0.994
50 | O=C(NCCCn1ccnc1)C(=O)NCC1OCCN1S(=O)(=O)c1ccc2c(c1)OCCO2 (stereo not given) | 13.2
51 | COC(=O)C1=COC(C)C2CN3CCc4c([nH]c5cc(OC)c(OC)cc45)C3CC12 (stereo not given) | 67.6
52 | COc1ccc(CCNC(=O)CSc2nnc(Cc3csc(N)n3)n2C)cc1OC | 61
53 | CC(C)(C)C1=Nn2c(nnc2-c2ccccn2)SC1 | 6.44
54 | Cc1ccccc1C(=O)Nc1cccc(C(=O)N/N=C/c2cc(Cl)cc([N+](=O)[O-])c2O)c1 | 40
55 | Cc1n[nH]c(=O)nc1N/N=C/c1ccco1 | 42.5
56 | c1ccc(-c2nc(-c3ccncc3)n[nH]2)nc1 | 2.79
57 | N#CC1=C(N)Oc2c(ccc3cccnc23)C1c1ccccc1 (stereo not given) | 17.7
58 | COc1cc(-c2nnc(NC(=O)c3ccco3)o2)cc(OC)c1OC | 66.9
59 | NC(CO)C(=O)NNCc1ccc(O)c(O)c1O (stereo not given) | 13.3
60 | O=C(CC(NCc1ccccn1)C(=O)O)Nc1ccccc1Cl (stereo not given) | 0.638
61 | c1ccc(-c2n[nH]c(-c3ccccn3)n2)nc1 | < 0.5
62 | O=S(=O)(N[C@@H]1CCCN(Cc2ccc(OCCO)cc2)C1)c1cccc2cccnc12 | 16.2
63 | O=C(Nc1nnc(-c2ccco2)o1)c1ccc(N2C(=O)CCC2=O)cc1 | 22.8
64 | CCOc1cc(/C=C2\SC(=N)N(c3nccs3)C2=O)ccc1OCCN1CCOCC1 | 35
65 | CCCCCc1cc(=O)oc2c(C(CCN(CC)CC)c3ccc(N(C)C)cc3)c(OC)cc(OC)c12 (stereo not given) | 5.02
66 | c1ccc(CNc2nc(-c3ccccn3)nc3ccccc23)cc1 | 11.4
67 | C[C@]12CC[C@H](O)CC1=CCC1C2CC[C@@]2(C)C1CC[C@@H]2NC(=O)[C@@H](N)Cc1cnc[nH]1 (stereo not given in full) | 28.3
68 | Cc1cccc(C(=O)Nc2nnc(-c3ccncc3)o2)c1 | 36.5
69 | CN(Cc1ccccc1)C(=O)c1[nH]cnc1C(=O)Nc1nccs1 | 22.5

Row | Structure (SMILES) | AC50 [µM]
70 | Oc1ccc(Br)cc1/C=N/Nc1ccccn1 | 3.27
71 | CSCC[C@H](NC(=O)OC(C)(C)C)C(=O)N/N=C/c1cccc2cccnc12 | 22.9
72 | Cc1cc(NC(c2cccnc2)c2ccc3cccnc3c2O)no1 (stereo not given) | 1.02
73 | COCc1ccc(O)c2ncccc12 | 2.22
74 | O=c1cc(-c2ccc(O)cc2)oc2c(O)c(O)c(O)c(O)c12 | 63
75 | O=S(=O)(c1ccc(Br)cc1)c1nc(-c2ccco2)oc1NCCCn1ccnc1 | 33.9
76 | CCC(=O)NC(c1cc(Cl)c2cccnc2c1O)C1CC1 (stereo not given) | 9.34
77 | O=S(=O)(N[C@@H]1CC[C@H](CCn2cc(-c3ccccn3)nn2)O[C@@H]1CO)c1cccc(F)c1 | 29.1
78 | Cc1ccc(CNc2nc(-c3ccccn3)nnc2-c2ccccc2)cc1C | 0.558
79 | COc1cc(CNCc2ccccn2)ccc1OCc1c(Cl)cccc1Cl | 43.4
80 | O=C(N[C@H]1CC[C@@H](CCn2cc(-c3ccccn3)nn2)O[C@H]1CO)c1ccc(F)cc1 | 12.6
81 | O=C(NCCCn1ccnc1)C(=O)NCC1OCCN1S(=O)(=O)c1ccc(Cl)cc1 (stereo not given) | 10.8
82 | C[C@H](NC(=O)c1ccco1)C(=O)Nc1nc(-c2ccccn2)cs1 | 8.23
83 | CC(=O)NC(C)c1cc(Cl)c2cccnc2c1O (stereo not given) | 6.14
84 | Cc1ccc(Nc2c(-c3ccccn3)nc3cc(C)ccn23)cc1 | 3.02
85 | C[C@H](CO)N1C[C@H](C)[C@@H](CN(C)S(=O)(=O)c2ccc(Cl)cc2)Oc2c(NC(=O)Nc3cccc4ccccc34)cccc2C1=O | 62
86 | CN(C)CCCNc1cc(O)c2ncccc2c1 | 0.583
87 | CCCCC(=O)NC(c1ccc(N(C)C)cc1)c1ccc2cccnc2c1O (stereo not given) | 2.63
88 | COc1cc([N+](=O)[O-])cc(/C=N/NC(=O)Cn2cncn2)c1O | 5.87
89 | COc1cc2c(c(OC)c1OC)-c1ccc(O)c(=O)cc1[C@@H](N)CC2 | 29.7
90 | Oc1c(I)cc(I)c2cccnc12 | 7.46
91 | CC(=O)Nc1cccc(C(=O)O)n1 | 12.2
92 | Oc1ccc(Cn2ccnc2)c2cccnc12 | < 0.5

Row | Structure (SMILES) | AC50 [µM]
93 | COc1cc(CCNc2ccc3nnc(-c4ccccc4)n3n2)cc(OC)c1OC | 10.6
94 | CCN(CC)c1ccc(C(=C2C=CC(=[N+](CC)CC)C=C2)c2ccc(N(CC)CC)cc2)cc1 | 0.734
95 | c1ccc(-c2nccc(-c3ccco3)n2)nc1 | 11.2
96 | CCN(CC)c1ccc(/C=N/NC(=O)c2ccc3nc[nH]c3c2)c(O)c1 | 12.5
97 | CC(=O)NC(c1ccc(Cl)cc1Cl)c1ccc2cccnc2c1O (stereo not given) | 5.14
98 | C/C(=N\NC(=O)Cc1ccc(Cl)cc1)c1ccccn1 | 10.2
99 | Cc1ccc(C)c(S(=O)(=O)N2CCCOC2CNC(=O)C(=O)NCCCn2ccnc2)c1 (stereo not given) | 4.16
100 | COC(=O)c1ccccc1-c1ccc(C(c2c(C)[nH][nH]c2=O)c2c(C)[nH][nH]c2=O)o1 | 15.7
101 | O=[N+]([O-])c1cc(Cl)cc(/C=N\Nc2ccccn2)c1O | 5.13
102 | CC1=C(SCc2ccccc2)C(=O)c2ccccc2C1=O | 39.7
103 | Cc1ccc(C)c(NC(=O)CSc2n[nH]c(-c3ccccn3)n2)c1 | 0.574
104 | COc1cccc(CNC(=O)CSc2ccc(-c3ccccn3)nn2)c1 | 4.03
105 | Cc1nnc(-c2ccccc2)c(=O)n1/N=C/c1c(O)ccc2ccccc12 | 49.2
106 | O=C(N[C@H]1CC[C@H](CCn2cc(-c3ccccn3)nn2)O[C@@H]1CO)c1ccccc1 | 13
107 | CCOC(=O)c1c(C)[nH]c(N=Nc2cccc(C)c2)c1C | 17.8
108 | COc1ccc(C)cc1NC(=O)CSc1ccc(-c2ccccn2)nn1 | 3.11
109 | Nc1[nH]c(=O)nc(Nc2ccccc2)c1N=O | 21.2
110 | CC(=O)N1CCc2[nH]c3ccc(C)cc3c2C1 | 13.9
111 | Cc1[nH][nH]c(=O)c1C(c1c(C)[nH][nH]c1=O)c1cn(Cc2cccc3ccccc23)c2ccccc12 | 19.9
112 | CCCCn1c(NC(=O)c2ccco2)c(C(=O)OCC)c2nc3ccccc3nc21 | 21.9
113 | COc1ccc(S(=O)(=O)N2CCOC2CNC(=O)C(=O)NCCCn2ccnc2)cc1OC (stereo not given) | 22.4
114 | Cc1ccc(S(=O)(=O)n2oc(=O)c(C3CCCCC3)c2N)cc1 | 16
115 | Oc1ccc(C2=Nn3c(nnc3-c3ccco3)SC2)cc1O | 6.22
